The results in this text go back to the COVID Moonshot data (paper PMC11187573), “Identification of SARS-CoV-2 Mpro inhibitors through deep reinforcement learning for de novo drug design and computational chemistry approaches” (RSC Medicinal Chemistry, 2024).

For series [1], the target named is SARS-CoV-2 Main Protease (SARS-CoV-2) (UniProt P0DTD1).
The target is the same in series [2]. This is another data set of the same source.

Molecule `Cc1ccncc1NC(=O)CN1CCOCC1` registered a relative solubility at 20 uM of 1 and a relative solubility at 100 uM of 1. For the same molecule, the inhibition (usually the drop in the measured response relative to a control, in per cent) in series [1] (20.0 µM) was -2.39%. In addition, the inhibition in series [1] (50.0 µM) is -7.76%. For the same molecule, in series [2] (50.0 µM), the inhibition amounted to 5.7%.
`Cc1ccncc1Cn1ccccc1=O` showed a relative solubility at 20 uM of 1 and a relative solubility at 100 uM of 1. Moreover, the inhibition in series [1] (20.0 µM) was 3.62%. For the same molecule, the inhibition in series [1] (50.0 µM) was 7.02%. For the same molecule, the inhibition in series [2] (50.0 µM) came to 6.5%.
Take `CCOc1ccccc1OC1CCN(C(=O)c2cc(=O)[nH]c3cc(F)ccc23)C1` (configuration not stated): the relative solubility at 20 uM stood at 1 and the relative solubility at 100 uM came out at 0.99. Besides, in series [1] (20.0 µM), the inhibition was 13.4%. Also, in series [1] (50.0 µM), the inhibition was found to be 21.4%. Further, in series [2] (50.0 µM), the inhibition was found to be 0%.
The molecule `O=C(NCc1ccc(Cl)cc1CN1CCN(C(=O)CCl)CC1)[C@@H]1CCCOC1` (stereo in doubt) gave a relative solubility at 20 uM of 1 and a relative solubility at 100 uM of 1. Besides, the inhibition in series [1] (20.0 µM) was determined as 56.7%. In series [1] (50.0 µM), the inhibition is 77.9%. In addition, in series [2], the 50% inhibitory concentration (IC50) – broadly, the concentration that inhibits the measured activity by half – worked out at 20100 nM. The inhibition in series [2] (50.0 µM) is 100%.
Molecule `O=C(Nc1ccccc1)c1cc(Cl)ccc1O` displayed a relative solubility at 20 uM of 1 and a relative solubility at 100 uM of 0.89. Further, the inhibition in series [1] (20.0 µM) came to 3.75%. Besides, the inhibition in series [1] (50.0 µM) worked out at 8.41%. In addition, in series [2] (20.0 µM), the inhibition is 0%.
In turn, `CC1CN(Cc2cccc(Cl)c2)CCN1C(=O)CCl` (configuration not stated) yielded a relative solubility at 20 uM of 0.99 and a relative solubility at 100 uM of 0.99. Besides, in series [1] (20.0 µM), the inhibition worked out at 88.3%. Also, the inhibition in series [1] (50.0 µM) turned out to be 93.9%. In addition, the IC50 in series [2] came to 2080 nM. Further, the inhibition in series [2] (20.0 µM) was found to be 94.6%. In series [2] (50.0 µM), the inhibition is 100%.
`CCn1c(=O)n(CC(=O)NCc2cnccn2)c2ccccc21` came in with a relative solubility at 20 uM of 1 and a relative solubility at 100 uM of 1. Besides, the inhibition in series [1] (20.0 µM) is 1.73%. Besides, the inhibition in series [1] (50.0 µM) is 6.74%. Further, in series [2] (20.0 µM), the inhibition worked out at 0%. In addition, the inhibition in series [2] (50.0 µM) stood at 0%.
As for `O=C(c1cc(=O)[nH]c2ccc(Cl)cc12)N1CCN(S(=O)(=O)c2ccccc2F)CC1`, the relative solubility at 20 uM came out at 0.94 and the relative solubility at 100 uM is 0.91. In series [1] (20.0 µM), the inhibition was -7.48%. Also, in series [1] (50.0 µM), the inhibition is 4.42%. Moreover, in series [2] (50.0 µM), the inhibition was 17.1%.
Take `CC(=O)N[C@@H](Cc1ccc(O)cc1)C(=O)NCc1ccc(Br)cc1` (stereo in doubt): the relative solubility at 20 uM was 1 and the relative solubility at 100 uM was determined as 0.99. Besides, the inhibition in series [1] (20.0 µM) is -20.1%. Also, the inhibition in series [1] (50.0 µM) was -24.8%. For the same molecule, the inhibition in series [2] (20.0 µM) is 0%.
Take `O=C(c1ccccc1)N1CCN(C(=O)c2nn(-c3ccccc3C(F)(F)F)cc2O)CC1`: the relative solubility at 20 uM turned out to be 0.99 and the relative solubility at 100 uM is 0.95. The inhibition in series [1] (20.0 µM) is -48%. The inhibition in series [1] (50.0 µM) was -1.44%. Also, the inhibition in series [2] (50.0 µM) was determined as 0%.
For `CCn1c(=O)n(CC(=O)Nc2c(C)ccnc2C)c2ccccc21` the same measures were 1, 1, -1.64%, -2.86% and 0%.
For `CN(CCNC(=O)c1cc(=O)[nH]c2ccccc12)c1ccccc1` the same measures were 0.91, 0.77, -2.32%, 19.2% and 8.3%.
For `CCN(CC1COc2ccccc2O1)C(=O)c1cc(=O)[nH]c2ccc(Cl)cc12` (configuration not stated) the same measures were 0.95, 0.89, 8.72%, 2.69% and 0%.
`O=C(CCl)N1CCN(S(=O)(=O)c2ccsc2)CC1`: the relative solubility at 20 uM came to 1 and the relative solubility at 100 uM was 1. Also, the IC50 in series [1] is 1630 nM. In series [1] (20.0 µM), the inhibition came out at 78.6%. For the same molecule, the inhibition in series [1] (50.0 µM) was determined as 73.7%. For the same molecule, in series [2], the IC50 came out at 484 nM. Besides, the inhibition in series [2] (20.0 µM) was found to be 96.4%.
With `C/C=C/C(=O)Nc1cccc(OC2CC(=O)N2)c1` (configuration not stated), the relative solubility at 20 uM was 1 and the relative solubility at 100 uM amounted to 1. For the same molecule, the inhibition in series [1] (20.0 µM) was -3.03%. Also, the inhibition in series [1] (50.0 µM) came to 4.68%. Further, the inhibition in series [2] (50.0 µM) came out at 0%.
In turn, `CCOc1ccccc1/C=C1/C(=O)NC(=O)c2ccccc21` showed a relative solubility at 20 uM of 0.97 and a relative solubility at 100 uM of 0.68. In addition, the inhibition in series [1] (20.0 µM) was -36.4%. Besides, the inhibition in series [1] (50.0 µM) was 4.82%. Also, the inhibition in series [2] (50.0 µM) amounted to 39.6%.
For the molecule `COCC1CCN(c2ccc(S(N)(=O)=O)cc2)CC1`, the relative solubility at 20 uM came out at 0.99 and the relative solubility at 100 uM is 1. In series [1] (50.0 µM), the inhibition was -23.1%. For the same molecule, the inhibition in series [2] (20.0 µM) came out at 22.3%. Also, the inhibition in series [2] (50.0 µM) was found to be 44%.
In the case of `C=CC(=O)N(c1ccc(C(C)(C)C)cc1)C(C(=O)Nc1ccc(F)cc1)c1cccnc1` (configuration not stated), the relative solubility at 20 uM stood at 0.98 and the relative solubility at 100 uM was found to be 0.86. For the same molecule, in series [1] (20.0 µM), the inhibition stood at 17%. Moreover, the inhibition in series [1] (50.0 µM) turned out to be 36%. Also, in series [2] (20.0 µM), the inhibition came out at 8.55%. In addition, the inhibition in series [2] (50.0 µM) was determined as 31.9%.
In turn, `CC(=O)N1CCN(Cc2cccc(C#N)c2)CC1` had a relative solubility at 20 uM of 1 and a relative solubility at 100 uM of 0.99. For the same molecule, the inhibition in series [1] (20.0 µM) was -0.339%. In addition, the inhibition in series [1] (50.0 µM) worked out at 6.59%. Moreover, the inhibition in series [2] (20.0 µM) stood at 0%.
